Patent US8207329B2, “Synthesis of chlorins and phorbines with enhanced red spectral features” (North Carolina State University, priority 2005, dated 2012)
Values joined by “and” are separate entries in the source; they are usually repeats but may differ in a detail not shown here. Equal values may be shown once. Read-outs that look alike come from different tables or passages of the source.

Legend:
[1] = Absorption spectra obtained in toluene at room temperature; format: physicochemical; conditions: for ΔνQy: redshift relative to the parent chlorin (ZnC or Zn—M^10), toluene; for Qy band / B/Qy band intensity ratio: toluene at room temperature; for Qy band: normalized at the B bands
Description: (§1) Absorption Spectra. The spectral properties of interest in the chlorins include the position of the long-wavelength Qy transition, the intensity of the Qy transition, and the fluorescence quantum yield of the chlorin. The intensity of the Qy transition can be assessed by the measured molar absorption coefficient; however, comparisons of such values are somewhat unreliable given the experimental variability encountered upon handling small quantities of materials. A better comparison is achieved by examination of the ratio of the intensities of the B and Qy bands for a given compound (B/Qy ratio), which is determined simply by absorption spectroscopy without requiring determination of the molar absorption coefficient. For a wide variety of applications, bathochromic and hyperchromic shifts of the Qy band are desired (i.e., shifted to longer wavelength and intensified), thereby affording strong absorption in the deep-red region.
General. ^1H NMR (400 MHz) and ^13C NMR (75 MHz) spectra were collected at room temperature in CDCl3. Absorption spectra were obtained in toluene at room temperature. Chlorins were analyzed by laser desorption mass spectrometry (LD-MS) in the absence of a matrix. Fast atom bombardment mass spectrometry (FAB-MS) data are reported for the molecule ion or protonated molecule ion. Melting points are uncorrected. All commercially available materials were used as received. All palladium-coupling reactions were carried out using standard Schlenk-line techniques.
as §1, with “B. Absorption” for “Absorption”, “Spectroscopy.” for “Spectra.”, “increased” for “intensified), thereby affording strong absorption”, “intensity).” for “the deep-red region.”
General. ^1H NMR (400 MHz) and ^13C NMR (75 MHz) spectra were collected at room temperature in CDCl3 unless noted otherwise. Absorption spectra were obtained in toluene at room temperature. Chlorins were analyzed by laser desorption mass spectrometry (LD-MS) in the absence of a matrix. Metalation of free base chlorins was monitored by fluorescence spectroscopy. Melting points are uncorrected. All commercially available materials were used as received.

[2] = Fluorescence spectra and fluorescence quantum yields in toluene at room temperature; format: physicochemical
Experimental: Fluorescence Spectroscopy. The fluorescence spectra and fluorescence quantum yields reported herein were collected in toluene at room temperature. Measurements of fluorescence quantum yield (Φf) were carried out using chlorin Zn-11 (Φf=0.065) as a standard (Strachan, J.-P. et al., J. Org. Chem. 2000, 65, 3160-3172).

[3] = Stability on storage and handling; format: physicochemical; conditions: for decomposes almost completely in solution within: in solution (such as in ethyl acetate or chlorinated solvent) even at 0° C.; for powdered solid stored without decomposition: in the refrigerator
[4] = cited from earlier work; for Qy band / εQy: chlorophylls; for Qy band: FIG. 3, in diethyl ether at room temperature; for εQy: Strain and Svec (FIG. 3)
[5] = Table 3, zinc chlorins in toluene at room temperature
[6] = Table 1, in toluene at room temperature
[7] = figure legends (FIG. 1, 2, 4, 5)
[8] = Table 1, literature value, in diethyl ether
[9] = Table 3, Ref Jones et al., in diethyl ether

For “Zn(II)-3-(2-(Triisopropylsilyl)ethynyl)-17,18-dihydro-10-mesityl-18,18-dimethylporphyrin [ZnC-E^3M^10]”, the “ΔνQy” value ([1]; Table 3) was 550 cm⁻¹, the B/Qy ratio [1, 5] was 2.3 and the “λmax (nm), B” value [1, 5] was 416 nm. For the same molecule, the “λmax (nm), Qy” value [1, 5] was 627 nm.
In the case of CC(=O)c1cc2[n-]c1cc1nc(cc3ccc([n-]3)c(-c3ccc(C)cc3)c3nc(c2-c2c(C)cc(C)cc2C)C=C3)C(C)(C)C1.[Cu+2] [Cu-8, Cu(II)-13-Acetyl-17,18-dihydro-10-mesityl-18,18-dimethyl-5-p-tolylporphyrin], the B/Qy intensity ratio [1, 6] is reported as 3.1, the “Log ε (M^−1cm^−1) (Qy band)” value [1, 6] is reported as 4.69 M^−1cm^−1 and the “λmax (nm), B” value [1, 6] is reported as 420 nm. The “λmax (nm), Qy” value [1, 6] was 631 nm.
In the case of CC(=O)c1cc2[nH]c1cc1nc(cc3ccc([nH]3)c(-c3ccc(C)cc3)c3nc(c2-c2c(C)cc(C)cc2C)C=C3)C(C)(C)C1 [compound 8, 13-Acetyl-17,18-dihydro-10-mesityl-18,18-dimethyl-5-p-tolylporphyrin], the B/Qy intensity ratio [1, 6] is reported as 2.3, the “Log ε (M^−1cm^−1) (Qy band)” value [1, 6] is reported as 4.67 M^−1cm^−1 and the “λmax (nm), B” value [1, 6] is reported as 422 nm. For the same molecule, the “λmax (nm), Qy” value [1, 6] was 661 nm, the “strong / dominant Qy(0,0) fluorescence band” value [2] was “approximately 668 nm” and the “weak emission feature / broad weak band” value [2] was ~711 nm and ~744 nm. For the same molecule, the “fluorescence quantum yield (Φf)” value ([2]; standard Zn-11 (Φf=0.065)) was 0.23.
For CC(C)[Si](C#Cc1cc2[n]3c1C=C1CC(C)(C)C(=N1)C=c1cc(C#C[Si](C(C)C)(C(C)C)C(C)C)c([n]1[Zn]3)=CC1=NC(=C2)C=C1)(C(C)C)C(C)C [ZnC-E^3E^13], the “ΔνQy” value ([1]; Table 3) was 1080 cm⁻¹, the B/Qy ratio [1, 5] was 1.4 and the “λmax (nm), B” value [1, 5] was 421 nm. The “λmax (nm), Qy” value [1, 5] was 645 nm and the Qy band ([1]; figure legends (FIG. 4, 5)) was 645.
In the case of Cc1cc(C)c(C2=c3cc(C#C[Si](C(C)C)(C(C)C)C(C)C)c4[n]3[Zn][n]3c(cc(C#C[Si](C(C)C)(C(C)C)C(C)C)c3C=C3C=CC2=N3)C=C2N=C(C=4)CC2(C)C)c(C)c1 [ZnC-E^3M^10E^13, Zn(II)-3,13-Bis[2-(triisopropylsilyl)ethynyl]-17,18-dihydro-10-mesityl-18,18-dimethylporphyrin], the “ΔνQy” value ([1]; Table 3) is reported as 1020 cm⁻¹, the B/Qy ratio [1, 5] is reported as 1.6 and the “λmax (nm), Qy” value [1, 5] is reported as 646 nm. It also gave a Qy band [1, 7] of 646 nm.
For CC(=O)c1cc2[n]3c1C=C1CC(C)(C)C(=N1)C=c1cc(C#C[Si](C(C)C)(C(C)C)C(C)C)c([n]1[Zn]3)=CC1=NC(=C2c2c(C)cc(C)cc2C)C=C1 [ZnC-E^3M^10A^13, Zn(II)-13-Acetyl-3-[2-(triisopropylsilyl)ethynyl]-17,18-dihydro-10-mesityl-18,18-dimethylporphyrin], the “ΔνQy” value ([1]; Table 3) was 1160 cm⁻¹, the B/Qy ratio [1, 5] was 1.5 and the “λmax (nm), B” value [1, 5] was 428 nm. The “λmax (nm), Qy” value [1, 5] was 652 nm, the Qy band ([1]; figure legend (FIG. 4)) was 652 and the “B/Qy band intensity ratio” value ([1]; figure legends (FIG. 4, 5)) was 1.5.
For Cc1ccc(C(=O)c2ccc(C(c3cc(Br)c(Br)[nH]3)c3c(C)cc(C)cc3C)[nH]2)cc1 (stereo not shown) [compound 4, 8,9-Dibromo-5-mesityl-1-(4-methylbenzoyl)dipyrromethane], the “decomposes almost completely in solution within” value [3] was 8 to 10 h, the “decomposed almost completely in solution within” value ([3]; purified compound in solution even at 0° C.) was 8 to 10 h and the “powdered solid stable on storage without decomposition” value ([3]; storage at −10° C.) was 1 to 2 days.
In the case of CC(=O)c1cc2[n]3c1C=C1CC(C)(C)C(=N1)C=c1ccc([n]1[Zn]3)=CC1=NC(=C2c2c(C)cc(C)cc2C)C=C1 [ZnC-M^10A^13, Zn(II)-13-Acetyl-17,18-dihydro-10-mesityl-18,18-dimethylporphyrin], the “ΔνQy” value ([1]; Table 3) is reported as 680 cm⁻¹, the B/Qy ratio [1, 5] is reported as 2.2 and the “λmax (nm), B” value [1, 5] is reported as 418 nm. The “λmax (nm), Qy” value [1, 5] was 632 nm and the Qy band ([1]; figure legends (FIG. 4, 5)) was 632.
In the case of pheophytin a, the B/Qy intensity ratio [4, 8] is listed as 2.1, the “Log ε (M^−1cm^−1) (Qy band)” value [4, 8] is listed as 5.12 and the “λmax (nm), B” value [4, 8] is listed as 408 nm. For the same molecule, the “λmax (nm), Qy” value [4, 8] was 667 nm.
With O=Cc1ccc(Cc2cc(Br)c(Br)[nH]2)[nH]1 [compound 14, 8,9-Dibromo-1-formyldipyrromethane] the “powdered solid stored without decomposition” value [3] was 2-3 weeks.
For Cc1ccc(C2=c3ccc4[n]3[Zn][n]3c(cc(Br)c3C=C3CC(C)(C)C(=N3)C=4)C(c3c(C)cc(C)cc3C)=C3C=CC2=N3)cc1 [Zn-6, Zn(II)-13-Bromo-17,18-dihydro-10-mesityl-18,18-dimethyl-5-p-tolylporphyrin], the B/Qy intensity ratio [1, 6] was 4.0, the “Log ε (M^−1cm^−1) (Qy band)” value [1, 6] was 4.65 M^−1cm^−1 and the “λmax (nm), B” value [1, 6] was 414 nm. The “λmax (nm), Qy” value [1, 6] was 616 nm.
For C=Cc1c(C)c2cc3nc(c4c5[n-]c(cc6nc(cc1[n-]2)C(C)=C6CC)c(C)c5C(=O)[C@@H]4C(=O)OC)[C@@H](CCC(=O)OC/C=C(\C)CCC[C@H](C)CCC[C@H](C)CCCC(C)C)[C@@H]3C.[Mg+2] [chlorophyll a], the B/Qy intensity ratio [4, 8] is listed as 1.3, the “λmax (nm), B” value [4, 8] is listed as 430 nm and the “λmax (nm), Qy” value [4, 8] is listed as 662 nm. The B band ([4]; chlorophyll a, text (FIG. 3)) was 430 nm, the Qy band [4] was 662 nm and the εQy [4] was 86,300 M^−1cm^−1.
In the case of C=Cc1cc2[n]3c1C=C1C=CC(=N1)C(c1c(C)cc(C)cc1C)=c1ccc([n]1[Zn]3)=CC1=NC(=C2)C(C)(C)C1 [ZnC-V^3M^10, Zn(II)-17,18-Dihydro-10-mesityl-18,18-dimethyl-3-vinylporphyrin], the “ΔνQy” value ([1]; Table 3) is reported as 400 cm⁻¹, the B/Qy ratio [1, 5] is reported as 3.3 and the “λmax (nm), B” value [1, 5] is reported as 413 nm. For the same molecule, the “λmax (nm), Qy” value [1, 5] was 621 nm.
In the case of CCCCB(CCCC)n1c(C(=O)c2ccc(C)cc2)ccc1C(c1ccc[nH]1)c1c(C)cc(C)cc1C (stereo not shown) [Bu2B-3, 10-(Dibutylboryl)-5-mesityl-1-p-toluoyldipyrromethane], the “stability (in words)” value [3] is reported as “decomposes partially at room temperature”.
With Cc1cc(C)c(C2=c3cc(C#C[Si](C(C)C)(C(C)C)C(C)C)c4[n]3[Zn][n]3c(ccc3C=C3N=C(C=4)CC3(C)C)C=C3C=CC2=N3)c(C)c1 [ZnC-M^10E^13, Zn(II)-13-[2-(Triisopropylsilyl)ethynyl]-17,18-dihydro-10-mesityl-18,18-dimethylporphyrin] the “ΔνQy” value ([1]; Table 3) was 530 cm⁻¹, the B/Qy ratio [1, 5] was 2.3 and the “λmax (nm), B” value [1, 5] was 412 nm. For the same molecule, the “λmax (nm), Qy” value [1, 5] was 626 nm.
With Cc1cc(C)c(C(c2ccc(C=O)[nH]2)c2cc(Br)c(Br)[nH]2)c(C)c1 (stereo not shown) [compound 16, 8,9-Dibromo-1-formyl-5-mesityldipyrromethane] the “decomposes almost completely in solution within” value [3] was 18 to 20 h and the “powdered solid stored without decomposition” value [3] was 5 to 7 days.
With CC(=O)c1cc2[n]3c1C=C1CC(C)(C)C(=N1)C=c1cc(C#C[Si](C(C)C)(C(C)C)C(C)C)c([n]1[Zn]3)=CC1=NC(=C2)C=C1 [ZnC-E^3A^13] the “ΔνQy” value ([1]; Table 3) was 1320 cm⁻¹, the B/Qy ratio [1, 5] was 1.2 and the “λmax (nm), B” value [1, 5] was 428 nm. The “λmax (nm), Qy” value [1, 5] was 655 nm, the Qy band [1, 7] was 655 nm and the “B/Qy band intensity ratio” value ([1]; figure legends (FIG. 4, 5)) was 1.2.
In the case of CC(=O)CC(C)(C)C(Cc1ccc[nH]1)[N+](=O)[O-] (stereo not shown) [compound 19, 4,4-Dimethyl-5-nitro-6-(1H-pyrrol-2-yl)hexan-2-one], the “colour change from yellow to black indicating partial decomposition” value ([3]; neat or in solution, at room temperature) is reported as 1 to 2 days.
For C=Cc1c(C)c2cc3nc(c4c5[n-]c(cc6nc(cc1[n-]2)C(C=O)=C6CC)c(C)c5C(=O)[C@@H]4C(=O)OC)[C@@H](CCC(=O)OC/C=C(\C)CCC[C@H](C)CCC[C@H](C)CCCC(C)C)[C@@H]3C.[Zn+2] [Zn-chlorophyll b], the B/Qy intensity ratio [4, 8] is given as 2.9, the “λmax (nm), B” value [4, 8] is given as 446 nm and the “λmax (nm), Qy” value [4, 8] is given as 634 nm. For the same molecule, the B/Qy ratio [4, 9] was 2.9, the “λmax (nm), B” value [4, 9] was 446 nm and the “λmax (nm), Qy” value [4, 9] was 634 nm.
For C=Cc1c(C)c2cc3nc(c4c5[n-]c(cc6nc(cc1[n-]2)C(C=O)=C6CC)c(C)c5C(=O)[C@@H]4C(=O)OC)[C@@H](CCC(=O)OC/C=C(\C)CCC[C@H](C)CCC[C@H](C)CCCC(C)C)[C@@H]3C.[Mg+2] [chlorophyll b], the Qy band [4] is listed as 642 nm and 644 nm and the εQy [4] is listed as 56,100 M^−1cm^−1.
